Test results published in PMC11855230, “Oligoethylene Phosphoramidate‐Based Kinase Inhibitor Prodrugs – Solubility, Enzyme Inhibition, and Hydrolysis” (Chemistry (Weinheim an Der Bergstrasse, Germany), 2025).
pIC50: −log10 of the molar value. ≈ marks a conversion by molar mass, not a printed value. Where “and” joins values, the source holds several entries; their conditions need not be identical. Equal values may be shown once. Read-outs that look alike come from different tables or passages of the source. Marks after values point to notes of the source that are not given here.

Experiments:
[1] = biological target: T1, ROS proto‐oncogene 1 (ROS1) (Homo sapiens, UniProt P08922); assay: ROS1 cell free enzyme (kinase) inhibition assay, luminescence; format: biochemical; details: 1 % DMSO, duplicates
T1 construct: purchased biomol
T1 sequence (P08922 28-2347): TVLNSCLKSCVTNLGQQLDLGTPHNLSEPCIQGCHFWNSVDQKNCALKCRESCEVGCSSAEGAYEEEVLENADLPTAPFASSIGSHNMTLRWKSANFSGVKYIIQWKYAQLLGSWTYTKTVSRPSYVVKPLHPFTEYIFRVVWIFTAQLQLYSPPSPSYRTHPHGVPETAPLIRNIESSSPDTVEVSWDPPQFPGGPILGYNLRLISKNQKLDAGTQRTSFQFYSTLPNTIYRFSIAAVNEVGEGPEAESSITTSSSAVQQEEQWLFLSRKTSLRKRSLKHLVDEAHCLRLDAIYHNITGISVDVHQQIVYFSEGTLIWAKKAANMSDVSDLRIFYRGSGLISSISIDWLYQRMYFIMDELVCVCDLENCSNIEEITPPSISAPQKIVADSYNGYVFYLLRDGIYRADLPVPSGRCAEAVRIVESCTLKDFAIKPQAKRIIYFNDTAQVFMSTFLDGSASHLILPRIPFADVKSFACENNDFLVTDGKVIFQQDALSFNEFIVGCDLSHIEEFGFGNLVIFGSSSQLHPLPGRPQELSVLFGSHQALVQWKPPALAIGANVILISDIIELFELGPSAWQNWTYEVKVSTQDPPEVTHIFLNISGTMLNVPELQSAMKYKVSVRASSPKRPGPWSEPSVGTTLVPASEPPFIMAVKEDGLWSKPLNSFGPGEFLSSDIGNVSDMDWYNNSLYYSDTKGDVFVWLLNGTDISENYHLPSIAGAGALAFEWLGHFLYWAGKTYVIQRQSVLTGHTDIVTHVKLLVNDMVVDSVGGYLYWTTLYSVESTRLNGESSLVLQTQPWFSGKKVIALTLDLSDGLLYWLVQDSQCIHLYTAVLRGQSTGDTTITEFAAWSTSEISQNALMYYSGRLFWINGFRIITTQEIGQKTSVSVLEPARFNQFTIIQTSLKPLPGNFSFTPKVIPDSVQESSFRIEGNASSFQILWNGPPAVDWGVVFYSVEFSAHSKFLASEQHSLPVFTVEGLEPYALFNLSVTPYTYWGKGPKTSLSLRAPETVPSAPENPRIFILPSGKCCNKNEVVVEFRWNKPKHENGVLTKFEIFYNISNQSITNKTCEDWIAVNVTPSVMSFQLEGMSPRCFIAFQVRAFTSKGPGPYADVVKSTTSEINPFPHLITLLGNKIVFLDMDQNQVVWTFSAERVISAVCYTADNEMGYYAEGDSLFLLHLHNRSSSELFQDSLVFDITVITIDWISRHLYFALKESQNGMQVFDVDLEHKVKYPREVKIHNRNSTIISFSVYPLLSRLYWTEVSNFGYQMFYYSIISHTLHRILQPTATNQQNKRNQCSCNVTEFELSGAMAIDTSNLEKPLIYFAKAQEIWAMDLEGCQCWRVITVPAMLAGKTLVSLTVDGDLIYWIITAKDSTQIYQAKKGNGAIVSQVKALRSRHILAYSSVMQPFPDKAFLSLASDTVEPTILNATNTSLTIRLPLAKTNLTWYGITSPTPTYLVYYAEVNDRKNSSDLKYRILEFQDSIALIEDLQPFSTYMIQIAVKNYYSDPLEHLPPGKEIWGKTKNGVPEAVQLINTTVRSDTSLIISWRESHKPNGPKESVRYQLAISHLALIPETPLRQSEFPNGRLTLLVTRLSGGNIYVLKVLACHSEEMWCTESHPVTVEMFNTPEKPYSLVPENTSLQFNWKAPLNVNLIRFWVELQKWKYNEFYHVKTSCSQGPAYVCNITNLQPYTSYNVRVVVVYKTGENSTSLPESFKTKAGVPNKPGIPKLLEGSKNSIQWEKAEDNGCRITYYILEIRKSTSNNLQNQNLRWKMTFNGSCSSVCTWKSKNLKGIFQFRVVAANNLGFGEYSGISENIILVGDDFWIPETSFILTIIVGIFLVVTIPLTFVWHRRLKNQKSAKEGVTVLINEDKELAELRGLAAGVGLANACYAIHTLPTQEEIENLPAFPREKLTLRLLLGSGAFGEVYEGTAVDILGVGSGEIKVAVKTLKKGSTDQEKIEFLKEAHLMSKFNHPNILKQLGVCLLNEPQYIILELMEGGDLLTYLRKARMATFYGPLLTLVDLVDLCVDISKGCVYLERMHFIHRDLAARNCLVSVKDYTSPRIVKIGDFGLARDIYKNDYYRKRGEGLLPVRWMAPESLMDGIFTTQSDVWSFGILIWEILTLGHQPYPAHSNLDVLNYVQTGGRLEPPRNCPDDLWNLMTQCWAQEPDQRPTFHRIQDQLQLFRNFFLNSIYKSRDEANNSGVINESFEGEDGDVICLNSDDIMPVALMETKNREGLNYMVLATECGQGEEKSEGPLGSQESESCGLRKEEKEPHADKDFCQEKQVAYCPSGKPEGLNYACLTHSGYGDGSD
Description: (§1) Apart from solubility and self‐assembly, we investigate the inhibitory potential against the respectively targeted receptors.
(§2) Enzyme Binding Studies (ROS1):[21] ROS1 assays are performed with the following substances: Cer‐OEG2 , Cer‐OEG3 , Cer‐OEG8 , Cri‐OEG2 , Cri‐OEG3 and Cri‐OEG8 . The instructions are followed with some specifications: DTT (10 μL of 1 M DTT to 1 mL buffer) is added to the buffer solution and the assay is performed with 1 % DMSO in the final reaction volume. Serial dilutions of inhibitor (5 μL) are mixed with 20 μL enzyme (5 ng/μL), 5 μL of IGF‐1Rtide (1 mg/mL) and 1 μL ATP solution (500 μM) in a 96‐well plate. The blank contains no enzyme and no inhibitor. The positive control contains enzyme but no inhibitor. The receptor inhibitory rate is calculated from the luminescence as IC50. […] Luminescence is recorded on Promega GloMax Navigator Microplate Luminometer. Samples are prepared in duplicates.

[2] = Dynamic light scattering (DLS) of drug‐conjugates in water; format: physicochemical; details: for PDI / hydrodynamic diameter: DLS in water, at the concentration given per compound (Figures S2–S5); for hydrodynamic diameter d: DLS in water at critical solution concentration c sol, 25 °C
Description: To study, whether self‐assembly into micelles might have an effect on the solubility limit of the prodrugs, we perform dynamic light scattering (DLS) of the drug‐conjugates in water. […] Micelles below 6 nm (Cer‐OEG8 , Cri‐OEG3 , Cri‐OEG8 , Pal‐OEG3 , Rib‐OEG2 , and Rib‐OEG3 ) are potentially affected by renal clearance.
Dynamic Light Scattering (DLS): Possible self‐assemblies are investigated with DLS Nano‐Zetasizer (Malvern Instruments) at 25 °C with a scattering angle of 173° at λ=633 nm.

[3] = Solubility limit in water (kinetic solubility) by UV/Vis optical density at 600 nm; format: physicochemical; details: kinetic from dmso stock, absorption at 600 nm, read-out: c sol (water), solubility limit in water
Source text: With all purified compounds in hand, we start to analyze the different properties of the conjugates and discuss the influence of the OEG‐chain lengths. We determine the solubility in water with UV/Vis spectroscopy by measuring the optical density at 600 nm. The absorption (A) is plotted against varying concentration (c) of the drug conjugates (see Figure S1). In the range, in which the drug and their conjugates are still soluble, A can be fitted linearly. When the solubility limit is reached, the drug crashes out of solution leading to scattering and reduced transmission manifesting a threshold, upon which the increase in absorption is fitted with a second line of higher slope. The intersection between the two linear fits gives the critical concentration for the kinetic solubility c sol. Detailed solubility plots can be found in the supporting information (see Figure S1). In our previous study with n=4, the solubility of all three kinase inhibitor prodrugs in water is improved over the native drug. However, the extent of improvement varies between the different kinase inhibitor prodrugs. For a better overview, we have included the performance of our previous study (see Figure 2).[21] […] We observe an improvement of solubility upon conjugation with all of our different OEG‐phosphates.
UV‐Vis Spectroscopy: Changes in solubility are measured with a Lambda 365 spectrometer by PerkinElmer supplied with UV WinLab software. Samples are prepared in water and placed in a 1 cm quartz cuvette.

[4] = biological target: T2, cyclin‐dependent kinase 4 (CDK4) (Homo sapiens, UniProt P11802); assay: CDK4 cell free enzyme (kinase) inhibition assay, luminescence; format: biochemical; details: 1 % DMSO, duplicates
T2 construct: purchased biomol
T2 sequence (P11802 whole entry): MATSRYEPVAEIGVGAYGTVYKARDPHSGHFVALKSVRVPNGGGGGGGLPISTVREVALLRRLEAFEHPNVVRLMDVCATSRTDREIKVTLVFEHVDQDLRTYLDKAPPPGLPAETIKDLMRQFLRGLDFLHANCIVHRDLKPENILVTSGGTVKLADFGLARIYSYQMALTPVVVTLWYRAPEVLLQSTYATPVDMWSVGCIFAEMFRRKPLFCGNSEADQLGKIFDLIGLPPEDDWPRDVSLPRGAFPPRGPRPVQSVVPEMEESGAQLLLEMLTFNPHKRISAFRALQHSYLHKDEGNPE
T2 sequence (P30281 whole entry partner): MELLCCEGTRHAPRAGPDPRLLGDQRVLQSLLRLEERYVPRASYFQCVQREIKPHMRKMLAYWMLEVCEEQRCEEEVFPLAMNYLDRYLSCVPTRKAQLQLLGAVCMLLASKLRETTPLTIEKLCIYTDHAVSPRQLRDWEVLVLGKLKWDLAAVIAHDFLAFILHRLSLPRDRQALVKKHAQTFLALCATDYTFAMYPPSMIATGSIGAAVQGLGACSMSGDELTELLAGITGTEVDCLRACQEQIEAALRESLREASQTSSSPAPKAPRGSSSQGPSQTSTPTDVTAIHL
Description: as §1
as §2, with “Binding Assays (CDK4):[21] […]” for “Binding Studies (ROS1):[21] ROS1 assays are performed with the following substances: Cer‐OEG2 , Cer‐OEG3 , Cer‐OEG8 , Cri‐OEG2 , Cri‐OEG3 and Cri‐OEG8 .”, “enzyme (10” for “enzyme (5”, “of 10x CDK4 substrate peptide” for “of IGF‐1Rtide (1 mg/mL)”

[5] = design: method as in PMID 38923708; details: kinetic solubility, cited from earlier work
[6] = pH dependent hydrolysis / drug release by HPLC; format: physicochemical; details: acetate buffer, pH 3, 37 °C
Source text: The working principle of a prodrug is to improve solubility and circulation time and not necessarily to improve binding to the target. However, binding should of course become important when the prodrug has arrived at the designated site and the promoiety is cleaved to release the native drug. In case of the phosphoramidate linked OEG chains, release of the native drug is induced by hydrolysis at low pH.[21, 28, 29, 30, 31, 32] The stability of the phosphoramidate linker and therefore its half‐life depends on the chemical surrounding in the molecule.[28, 29] Since we only change distant substituents by varying the binding motif of the respective kinase inhibitor, we expect only minor influence on the rate of hydrolysis. We investigate the samples at pH 3, 4, 5, 6, and 7.4 over a course of 72 h at 37 °C using high pressure liquid chromatography (HPLC) (see Figure S10–13 and Table S1–11). […]
High Performance Liquid Chromatography (HPLC): Drug release is monitored on Agilent 1260 Infinity containing the following modules: G1311B Quat Pump, G1329B ALS, G1365D MWD VL in combination with a Jetstream 2 plus column thermostat. […] Flow rate is set to 0.3 mL/min and absorption is detected at 254 nm. […]
pH Dependent Hydrolysis:[21] […] Drug release percentages are calculated form the ratio of the peak area of drug and drug‐OEG conjugate for 0, 3, 6, 24, 48 and 72 h.

HeLa cells [7] = assay: Cell uptake in HeLa cells by confocal laser scanning microscopy (CLSM); format: cell-based; details: 25 μM, 23 h, excitation 405 nm
Description: Altogether an OEG chain length of n=4 seems to be favorable for producing prodrugs with improved solubility from kinase inhibitors. […] Here we therefore concentrate on Rib‐OEG4 . […] The drug and its conjugate are exited at 405 nm, leading to weak fluorescence of the drugs.
Uptake is followed by Confocal for 23 h using Leica TCS SP8 Lightning confocal microscope with an OnkoLab incubator chamber with a constant temperature of 37 °C and a 5 % CO2 atmosphere at 95 % humidity (gas flow: 0.1 L/min). Drug and drug‐OEG conjugate is excited at 405 nm.

HeLa cells [8] = assay: Cellular drug release in HeLa cells, LC–MS of cell lysate; format: cell-based; details: 20 μM, 48 h
Description: HeLa cells are treated with Rib‐OEG4 for 48 h followed by cell lysis. The cell lysate is analyzed with liquid chromatography‐mass spectrometry (LC–MS). […] This confirms that release of the drug is possible in cells and that the low pH in some of the cell compartments, such as the lysosomes, yield release of the effective drug molecule.
Cellular Drug‐Release with LC–MS: Drug release studies are performed according to previous publication with 20 μM of Rib‐OEG4 .[21]

[9] = values marked a from previous publication ref 21

Structure (SMILES)	pIC50 [1]	PDI [2]	hydrodynamic diameter [2] [nm]	solubility [3] [mM]	pIC50 [4]	also measured
COCCOCCOP(=O)(OCCOCCOC)N1CCC(n2cc(-c3cnc(N)c(O[C@H](C)c4c(Cl)ccc(F)c4Cl)c3)cn2)CC1 [Cri‐OEG2]	7.30	0.03	151			
COCCOCCOP(=O)(OCCOCCOC)N1CCN(c2ccc(Nc3ncc4cc(C(=O)N(C)C)n(C5CCCC5)c4n3)nc2)CC1 [Rib‐OEG2]		0.22	2.5	12.3 (≈ 8840 µg/mL)	6.96	
C[C@@H](Oc1cc(-c2cnn(C3CCNCC3)c2)cnc1N)c1c(Cl)ccc(F)c1Cl [Crizotinib]						c sol (water), solubility limit in water [5, 9]: ≤0.77 ^a mM
COCCOCCOCCOP(=O)(OCCOCCOCCOC)N1CCN(c2ccc(Nc3ncc4cc(C(=O)N(C)C)n(C5CCCC5)c4n3)nc2)CC1 [Rib‐OEG3]		0.15	1.8	13.5 (≈ 10900 µg/mL)	6.43	
COCCOCCOCCOCCOCCOCCOCCOCCOP(=O)(OCCOCCOCCOCCOCCOCCOCCOCCOC)N1CCC(n2cc(-c3cnc(N)c(O[C@H](C)c4c(Cl)ccc(F)c4Cl)c3)cn2)CC1 [Cri‐OEG8]	6.85	0.36	3.3	≤ 4.62		
COCCOCCOP(=O)(OCCOCCOC)N1CCN(c2ccc(Nc3ncc4c(C)c(C(C)=O)c(=O)n(C5CCCC5)c4n3)nc2)CC1 [Pal‐OEG2]		0.17	264		6.00	
COCCOCCOCCOP(=O)(OCCOCCOCCOC)N1CCC(n2cc(-c3cnc(N)c(O[C@H](C)c4c(Cl)ccc(F)c4Cl)c3)cn2)CC1 [Cri‐OEG3]	7.35	0.02	3.7	19.1 (≈ 15700 µg/mL)		
COCCOCCOCCOCCOCCOCCOCCOCCOP(=O)(OCCOCCOCCOCCOCCOCCOCCOCCOC)N1CCN(c2ccc(Nc3ncc4cc(C(=O)N(C)C)n(C5CCCC5)c4n3)nc2)CC1 [Rib‐OEG8]		0.22	64	1.52 (≈ 1900 µg/mL)	6.40	hydrodynamic diameter d [2]: 64 nm
COCCOCCOCCOP(=O)(OCCOCCOCCOC)N1CCN(c2ccc(Nc3ncc4c(C)c(C(C)=O)c(=O)n(C5CCCC5)c4n3)nc2)CC1 [Pal‐OEG3]		0.74	5	8.71 (≈ 7140 µg/mL)	6.57 to 6.67 and 6.67	
Cc1cc(Nc2ncc(Cl)c(Nc3ccccc3S(=O)(=O)C(C)C)n2)c(OC(C)C)cc1C1CCNCC1 [Ceritinib]						c sol (water), solubility limit in water ([5]; values marked a from previous publication ref 21, listed as Ceritninib): 0.93 mM; c sol (water), solubility limit in water [5, 9]: ≤0.93^a mM
COCCOCCOCCOCCOCCOCCOCCOCCOP(=O)(OCCOCCOCCOCCOCCOCCOCCOCCOC)N1CCC(c2cc(OC(C)C)c(Nc3ncc(Cl)c(Nc4ccccc4S(=O)(=O)C(C)C)n3)cc2C)CC1 [Cer‐OEG8]	7.00	0.25	4.9	1.75 (≈ 2400 µg/mL)		half-life [6]: 50 h
COCCOCCOP(=O)(OCCOCCOC)N1CCC(c2cc(OC(C)C)c(Nc3ncc(Cl)c(Nc4ccccc4S(=O)(=O)C(C)C)n3)cc2C)CC1 [Cer‐OEG2]	7.00	0.46	565			
CN(C)C(=O)c1cc2cnc(Nc3ccc(N4CCNCC4)cn3)nc2n1C1CCCC1 [Ribociclib, reference compound]				0.49 (≈ 213 µg/mL)		uptake in HeLa cells (HeLa cells [7]): taken up by the cells
CC(=O)c1c(C)c2cnc(Nc3ccc(N4CCNCC4)cn3)nc2n(C2CCCC2)c1=O [Palbociclib]						c sol (water), solubility limit in water [5, 9]: ≤0.02 ^a mM
COCCOCCOCCOP(=O)(OCCOCCOCCOC)N1CCC(c2cc(OC(C)C)c(Nc3ncc(Cl)c(Nc4ccccc4S(=O)(=O)C(C)C)n3)cc2C)CC1 [Cer‐OEG3]	7.35	0.05	279			
COCCOCCOCCOCCOCCOCCOCCOCCOP(=O)(OCCOCCOCCOCCOCCOCCOCCOCCOC)N1CCN(c2ccc(Nc3ncc4c(C)c(C(C)=O)c(=O)n(C5CCCC5)c4n3)nc2)CC1 [Pal‐OEG8]		0.33	596	≤ 3.16	6.57 to 6.67 and 6.57	hydrodynamic diameter d [2]: 596 nm
COCCOCCOCCOCCOP(=O)(OCCOCCOCCOCCOC)N1CCN(c2ccc(Nc3ncc4cc(C(=O)N(C)C)n(C5CCCC5)c4n3)nc2)CC1 [Rib‐OEG4]		0.35	92	9.33 (≈ 8350 µg/mL)	7.92	hydrodynamic diameter d [2]: 92 nm; uptake in HeLa cells (HeLa cells [7]): taken up by the cells; release of native drug from prodrug in HeLa cells (HeLa cells [8]): most of the native drug has been released
